≈ marks a conversion by molar mass, not a printed value.
Columns and labels:
[1] = target: S-phase kinase-associated protein 2/Cyclin-dependent kinases regulatory subunit 1/S-phase kinase-associated protein 1 (Homo sapiens, UniProt Q13309); experiment: Inhibition of GST-tagged Skp2/Skp1 (unknown origin)/His6-tagged Cks1 (unknown origin) interaction preincubated with Skp2/Skp1 for 10 mins followed by Cks1 addition measured after 20 mins by HTRF assay; format: protein assay
[2] = Solubility in cell culture medium by HPLC analysis; format: physicochemical
PC-3 = experiment: Antitumor activity against human PC-3 cells assessed as cell growth inhibition incubated for 72 hrs by MTT assay; format: functional, cell-based; conditions: PC-3, 72 h
[3] = Antitumor activity against human EC1 cells assessed as cell growth inhibition incubated for 72 hrs by MTT assay; format: functional, cell-based; conditions: EC1, 72 h
MGC-803 = experiment: Antitumor activity against human MGC-803 cells assessed as cell growth inhibition incubated for 72 hrs by MTT assay; format: functional, cell-based; conditions: MGC-803, 72 h
NCI-H1299 = experiment: Antitumor activity against human NCI-H1299 cells assessed as cell growth inhibition incubated for 72 hrs by MTT assay; format: functional, cell-based; conditions: NCI-H1299, 72 h
MCF7 = experiment: Antitumor activity against human MCF7 cells assessed as cell growth inhibition incubated for 72 hrs by MTT assay; format: functional, cell-based; conditions: MCF7, 72 h

Sequence of S-phase kinase-associated protein 2/Cyclin-dependent kinases regulatory subunit 1/S-phase kinase-associated protein 1 (P61024 whole entry): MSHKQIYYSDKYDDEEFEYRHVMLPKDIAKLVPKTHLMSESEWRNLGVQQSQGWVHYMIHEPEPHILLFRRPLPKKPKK
Sequence of S-phase kinase-associated protein 2/Cyclin-dependent kinases regulatory subunit 1/S-phase kinase-associated protein 1 (Q13309 whole entry): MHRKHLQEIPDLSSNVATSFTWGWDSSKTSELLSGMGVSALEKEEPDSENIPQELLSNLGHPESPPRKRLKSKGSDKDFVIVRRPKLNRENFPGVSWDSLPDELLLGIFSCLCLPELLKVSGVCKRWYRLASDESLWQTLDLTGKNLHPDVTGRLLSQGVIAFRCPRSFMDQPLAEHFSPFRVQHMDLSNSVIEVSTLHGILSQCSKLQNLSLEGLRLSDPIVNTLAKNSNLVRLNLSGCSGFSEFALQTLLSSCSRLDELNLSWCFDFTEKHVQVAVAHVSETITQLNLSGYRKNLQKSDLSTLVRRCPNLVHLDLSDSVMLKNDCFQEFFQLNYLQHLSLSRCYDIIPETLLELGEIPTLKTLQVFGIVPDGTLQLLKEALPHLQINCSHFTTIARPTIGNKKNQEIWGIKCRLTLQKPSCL
Sequence of S-phase kinase-associated protein 2/Cyclin-dependent kinases regulatory subunit 1/S-phase kinase-associated protein 1 (P63208 whole entry, further chain): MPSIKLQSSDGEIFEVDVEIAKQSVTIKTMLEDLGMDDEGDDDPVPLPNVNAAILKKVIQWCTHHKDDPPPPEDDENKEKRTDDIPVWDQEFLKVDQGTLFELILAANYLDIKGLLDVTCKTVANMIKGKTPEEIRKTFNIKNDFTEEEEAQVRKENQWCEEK

Compound	IC50 [1]	further results
c1ccc(-c2ncc(NC3CCCCC3)nc2-c2ccccc2)cc1	> 50 µM	
CN(C)CCNc1cnc(-c2ccccc2)c(-c2ccccc2)n1	> 50 µM	
CN1CCN(c2cnc(-c3ccccc3)c(-c3ccccc3)n2)CC1	> 50 µM	
CC(C)N(C)c1cnc(-c2ccccc2)c(-c2ccccc2)n1	> 50 µM	
CC1CCN(c2cnc(-c3ccccc3)c(-c3ccccc3)n2)CC1	> 50 µM	
COc1cnc(-c2ccccc2)c(-c2ccccc2)n1	> 50 µM	
CC(C)(C)C(=O)NCC1CCN(c2cnc(-c3ccccc3)c(-c3ccccc3)n2)CC1		solubility [2]: 0.1 µg/mL (≈ 0.233 µM); IC50 (PC-3): 68 µM; IC50 [3]: 75.6 µM; IC50 (MGC-803): > 100 µM; IC50 (NCI-H1299): 59 µM; IC50 (MCF7): 51.8 µM
CS(=O)(=O)NC(=O)COCCNc1cnc(-c2ccccc2)c(-c2ccccc2)n1	> 50 µM	
Oc1cnc(-c2ccccc2)c(-c2ccccc2)n1	> 50 µM	
Cc1ccc(S(=O)(=O)NC(=O)COCCCCN(c2cnc(-c3ccccc3)c(-c3ccccc3)n2)C(C)C)cc1	> 50 µM	
OCC1CCN(c2cnc(-c3ccccc3)c(-c3ccccc3)n2)CC1	> 50 µM	
CS(=O)(=O)NC(=O)COCCCCN(Cc1ccccc1)c1cnc(-c2ccccc2)c(-c2ccccc2)n1	> 50 µM	
CS(=O)(=O)NC(=O)COCCCCNc1cnc(-c2ccccc2)c(-c2ccccc2)n1	> 50 µM	
CC(C)(C)C(=O)NCC1CCN(c2cnc(-c3ccc(CO)cc3)c(-c3ccccc3)n2)CC1		solubility [2]: 0.06 µg/mL (≈ 0.131 µM); IC50 (PC-3): > 100 µM; IC50 [3]: > 100 µM; IC50 (MGC-803): > 100 µM; IC50 (NCI-H1299): 100 µM; IC50 (MCF7): > 100 µM
O=C(NC1CCN(c2cnc(-c3ccccc3)c(-c3ccccc3)n2)CC1)c1ccccc1		solubility [2]: 0.1 µg/mL (≈ 0.23 µM); IC50 (PC-3): > 100 µM; IC50 [3]: > 100 µM; IC50 (MGC-803): 41.3 µM; IC50 (NCI-H1299): > 100 µM; IC50 (MCF7): 25.1 µM
CC(C)N(CCCCOCC(=O)Nc1ccccc1)c1cnc(-c2ccccc2)c(-c2ccccc2)n1	> 50 µM	
Clc1cnc(-c2ccccc2)c(-c2ccccc2)n1	> 50 µM	
CN(c1cnc(-c2ccccc2)c(-c2ccccc2)n1)C1CCCCC1	> 50 µM	
CC(C)N(CCCCOCC(=O)O)c1cnc(-c2ccccc2)c(-c2ccccc2)n1 [LASELIPAG]	> 50 µM	
CC1CN(c2cnc(-c3ccccc3)c(-c3ccccc3)n2)CCN1C(=O)OC(C)(C)C (configuration not stated)	> 25 µM	

Compound	IC50 [1]	further results
CC(C)(C)C(=O)NCC1CCN(c2cnc(-c3cccc(CO)c3)c(-c3ccccc3)n2)CC1	> 25 µM	
O=C(CCCl)N1CCN(c2cnc(-c3ccccc3)c(-c3ccccc3)n2)CC1	> 25 µM	
CC(C)Nc1cnc(-c2ccccc2)c(-c2ccccc2)n1	> 50 µM	
CC(C)(C)OC(=O)NCCCNc1cnc(-c2ccccc2)c(-c2ccccc2)n1	> 25 µM	
O=C(c1cccs1)N1CCN(c2cnc(-c3ccccc3)c(-c3ccccc3)n2)CC1	> 25 µM	
c1ccc(-c2ncc(N3CCSCC3)nc2-c2ccccc2)cc1	> 50 µM	
CNc1cnc(-c2ccccc2)c(-c2ccccc2)n1	> 50 µM	
O=C(N1CCOCC1)N1CCN(c2cnc(-c3ccccc3)c(-c3ccccc3)n2)CC1	> 25 µM	
c1ccc(-c2ncc(NCCN3CCOCC3)nc2-c2ccccc2)cc1	> 50 µM	
CC(C)(C)OC(=O)NC1CCN(c2cnc(-c3ccccc3)c(-c3ccccc3)n2)C1 (configuration not stated)	> 25 µM	
O=C(NCC1CCN(c2cnc(-c3ccccc3)c(-c3ccccc3)n2)CC1)N1CCOCC1		solubility [2]: 0.55 µg/mL (≈ 1.2 µM); IC50 (PC-3): 28.6 µM; IC50 [3]: 51.8 µM; IC50 (MGC-803): 59.3 µM; IC50 (NCI-H1299): 30.4 µM; IC50 (MCF7): 47.1 µM
CN(C)C1CCN(c2cnc(-c3ccccc3)c(-c3ccccc3)n2)CC1	> 50 µM	
CN(C)CCN(C)c1cnc(-c2ccccc2)c(-c2ccccc2)n1	> 50 µM	
O=C(CBr)NCC1CCN(c2cnc(-c3ccccc3)c(-c3ccccc3)n2)CC1	> 25 µM	
CC(C)(C)C(=O)NCC1CCN(c2cnc(-c3ccc(N)cc3)c(-c3ccccc3)n2)CC1	> 25 µM	
c1ccc(-c2ncc(N3CCOCC3)nc2-c2ccccc2)cc1	> 50 µM	
CCS(=O)(=O)NC1CCN(c2cnc(-c3ccccc3)c(-c3ccccc3)n2)CC1	> 25 µM	
C=CC(=O)NCC1CCN(c2cnc(-c3ccccc3)c(-c3ccccc3)n2)CC1	> 25 µM	
CC(C)N(CCCCOCC(=O)Nc1nccs1)c1cnc(-c2ccccc2)c(-c2ccccc2)n1	> 50 µM	

Second part, led by results:

IC50 [1]	Compound	further results
> 25 µM	CC(C)(C)C(=O)NCC1CCN(c2cnc(C3CCCCC3)c(-c3ccccc3)n2)CC1	
> 25 µM	CC(C)(C)C(=O)NCC1CCN(c2cnc(-c3cncnc3)c(-c3ccccc3)n2)CC1	
> 25 µM	C=CC(=O)N1CCN(c2cnc(-c3ccccc3)c(-c3ccccc3)n2)CC1	
13.7 µM	CC(C)(C)OC(=O)NC1CCN(c2cnc(-c3ccccc3)c(-c3ccccc3)n2)CC1	
3.3 µM	O=C(NCC1CCN(c2cnc(-c3ccccc3)c(-c3ccccc3)n2)CC1)C1CC1	
> 25 µM	CN(C(=O)OC(C)(C)C)C1CCN(c2cnc(-c3ccccc3)c(-c3ccccc3)n2)CC1	
17.9 µM	CC(=O)N1CCN(c2cnc(-c3ccccc3)c(-c3ccccc3)n2)CC1	
13.1 µM	O=C(CCCl)NCC1CCN(c2cnc(-c3ccccc3)c(-c3ccccc3)n2)CC1	
> 25 µM	Cc1ccc(S(=O)(=O)NC2CCN(c3cnc(-c4ccccc4)c(-c4ccccc4)n3)CC2)cc1	
52.6 µM	CC(C)N(CCCCOCC(=O)N1CCOCC1)c1cnc(-c2ccccc2)c(-c2ccccc2)n1	
> 25 µM	CC(C)(C)C(=O)NCC1CCN(c2cnc(-c3cn[nH]c3)c(-c3ccccc3)n2)CC1	
5.2 µM	CN(C)c1ccc(-c2ncc(N3CCC(CNC(=O)C(C)(C)C)CC3)nc2-c2ccccc2)cc1	
10.2 µM	CC(C)(C)C(=O)NC1CCN(c2cnc(-c3ccccc3)c(-c3ccccc3)n2)CC1	
> 25 µM	CC(C)(C)C(=O)NCC1CCN(c2cnc(-c3ccccc3CO)c(-c3ccccc3)n2)CC1	
17.7 µM	O=C(c1ccccc1)N1CCN(c2cnc(-c3ccccc3)c(-c3ccccc3)n2)CC1	
> 25 µM	CC(C)(C)C(=O)NCC1CCN(c2cnc(Br)c(-c3ccccc3)n2)CC1	
> 25 µM	CC(C)(C)C(=O)NCC1CCN(c2cnc(-c3ccncc3)c(-c3ccccc3)n2)CC1	
> 25 µM	O=C(CBr)N1CCN(c2cnc(-c3ccccc3)c(-c3ccccc3)n2)CC1	
24.5 µM	CC(C)(C)OC(=O)N1CCCN(c2cnc(-c3ccccc3)c(-c3ccccc3)n2)CC1	
5.8 µM	O=C(C1CC1)N1CCN(c2cnc(-c3ccccc3)c(-c3ccccc3)n2)CC1	
8.12 µM	CC(C)(C)C(=O)NCC1CCN(c2cnc(-c3ccco3)c(-c3ccccc3)n2)CC1	
10 µM	CCC(=O)N1CCN(c2cnc(-c3ccccc3)c(-c3ccccc3)n2)CC1	

IC50 [1]	Compound	further results
> 25 µM	O=C(NC1CCN(c2cnc(-c3ccccc3)c(-c3ccccc3)n2)CC1)OCc1ccccc1	
> 25 µM	O=C(C1CCCCC1)N1CCN(c2cnc(-c3ccccc3)c(-c3ccccc3)n2)CC1	
> 25 µM	O=C(CCl)NCC1CCN(c2cnc(-c3ccccc3)c(-c3ccccc3)n2)CC1	
> 25 µM	CC(C)c1ncc(N2CCC(CNC(=O)C(C)(C)C)CC2)nc1-c1ccccc1	
> 25 µM	CC(C)COC(=O)NC1CCN(c2cnc(-c3ccccc3)c(-c3ccccc3)n2)CC1	
> 25 µM	C=Cc1ncc(N2CCC(CNC(=O)C(C)(C)C)CC2)nc1-c1ccccc1	
> 25 µM	CC(C)(C)OC(=O)NC1CCCN(c2cnc(-c3ccccc3)c(-c3ccccc3)n2)C1 (configuration not stated)	
2.4 µM	O=C(NCC1CCN(c2cnc(-c3ccccc3)c(-c3ccccc3)n2)CC1)c1ccccc1	solubility [2]: 0.08 µg/mL (≈ 0.178 µM); IC50 (PC-3): 70.9 µM; IC50 [3]: 81.1 µM; IC50 (MGC-803): > 100 µM; IC50 (NCI-H1299): > 100 µM; IC50 (MCF7): > 100 µM
2.7 µM	CC(C)(C)C(=O)NCC1CCN(c2cnc(-c3ccc(S(C)(=O)=O)cc3)c(-c3ccccc3)n2)CC1	solubility [2]: 0.19 µg/mL (≈ 0.375 µM); IC50 (PC-3): 63.7 µM; IC50 [3]: 88.2 µM; IC50 (MGC-803): 87.2 µM; IC50 (NCI-H1299): 50.8 µM; IC50 (MCF7): 65.6 µM
8.5 µM	O=C(NCC1CCN(c2cnc(-c3ccccc3)c(-c3ccccc3)n2)CC1)C1CCCCC1	
9.9 µM	O=C(CCl)N1CCN(c2cnc(-c3ccccc3)c(-c3ccccc3)n2)CC1	
45.4 µM	CN(C)c1cnc(-c2ccccc2)c(-c2ccccc2)n1	
2.8 µM	CCC(=O)NCC1CCN(c2cnc(-c3ccccc3)c(-c3ccccc3)n2)CC1	solubility [2]: 0.57 µg/mL (≈ 1.42 µM); IC50 (PC-3): 22.1 µM; IC50 [3]: 52.6 µM; IC50 (MGC-803): 43.9 µM; IC50 (NCI-H1299): 68.3 µM; IC50 (MCF7): 58.1 µM
8.5 µM	O=C(NCC1CCN(c2cnc(-c3ccccc3)c(-c3ccccc3)n2)CC1)c1cccs1	
13.5 µM	O=C(NC1CCN(c2cnc(-c3ccccc3)c(-c3ccccc3)n2)CC1)Oc1ccccc1	
13.2 µM	CC(C)(C)C(=O)N1CCN(c2cnc(-c3ccccc3)c(-c3ccccc3)n2)CC1	
12.4 µM	CC(=O)NCC1CCN(c2cnc(-c3ccccc3)c(-c3ccccc3)n2)CC1	
25.2 µM	NC1CCN(c2cnc(-c3ccccc3)c(-c3ccccc3)n2)CC1	
2.3 µM	CC(C)(C)OC(=O)NCC1CCN(c2cnc(-c3ccccc3)c(-c3ccccc3)n2)CC1	solubility [2]: 0.51 µg/mL (≈ 1.15 µM); IC50 (PC-3): 11.7 µM; IC50 [3]: 45.6 µM; IC50 (MGC-803): 23.6 µM; IC50 (NCI-H1299): 41.6 µM; IC50 (MCF7): 18 µM
10.9 µM	CC(C)(C)C(=O)NCC1CCN(c2cnc(-c3ccc(C(F)(F)F)cc3)c(-c3ccccc3)n2)CC1	
20.2 µM	CN(CCNC(=O)OC(C)(C)C)c1cnc(-c2ccccc2)c(-c2ccccc2)n1	
15.6 µM	O=C(NCC1CCN(c2cnc(-c3ccccc3)c(-c3ccccc3)n2)CC1)C(F)(F)F	

Reference: ChEMBL document CHEMBL5338791, “Discovery of Novel 1,3-Diphenylpyrazine Derivatives as Potent S-Phase Kinase-Associated Protein 2 (Skp2) Inhibitors for the Treatment of Cancer” (J Med Chem, 2023)
